Assay [1] relates to BRCA2_KD HeLa silenciX cells. Briefly: Clonogenic assay, BRCA2_KD HeLa. To be noted: vs control HeLa cells. It counts as cell-based. How it is done:
(§1) Clonogenic assay: In the clonogenic assay (colony formation assays), 32 cells/cm2 were seeded in 6-well plates and left at 37°C in a 5% CO2 atmosphere. Cisplatin (5µM) and/or FEN1i (10µM) and/or Importazole (5 µM, Selleckem, S8446 ) were added at the indicated concentrations and the plates were left at 37 °C in a 5% CO 2 atmosphere for 14 days. Later, the plates were washed with PBS, fixed and stained with a crystal violet, acetic acid and methanol solution and colonies were counted.
(§2) Nuclear and cytoplasmic extract: Cells were harvest by trypsinization, washed with PBS and centrifuged at 1000×g for 5min. […] Protein level were then quantified prior to use in western blots.
(§3) BCA protein quantification: Protein quantification was done using the Pierce BCA kit assay by Thermo Fisher Scientific. […] The plate was incubated at 37°C during 30 min in the dark and the absorbance was measured by FLUOstar OPTIMA, UK/ Infinite® F50 (UK) microplate reader at 590 nm. […]
(§4) Western Blot Analysis: Cells were harvested and lysed in RIPA buffer (R0278, Sigma) with the addition of protease cocktail inhibitor (P8348, Sigma), phosphatase inhibitor cocktail 2 (P5726, Sigma) and phosphatase inhibitor cocktail 3 (P0044, Sigma) and stored at - 20°C. Protein was quantified using BCA Protein Assay kit (23225, Thermo Fisher). […]

In assay [2] the test system is PEO1 cells. Briefly: γH2AX analysis, PEO1. It is filed as cell-based, human. To be noted: FEN1i monotherapy. How it is done:
Graphical representation and statistical analysis of mean tail moment was performed in GraphPad Prism 6 (GraphPad, La Jolla, USA). All experiments were done in duplicate three times.
γH2AX FACS: For monitoring DNA double strand break accumulation by γH2AX FACS, 1.05×104 Cells/cm2 were seeded in 6-well plates and left overnight at 37°C in a 5% CO 2 atmosphere. Cisplatin (5µM) or FEN1i (10µM) was later added to cells and incubated for 24h and 48h at 37°C in a 5% CO2 atmosphere. Cells were collected by trypsinization, washed […]
with ice cold PBS and fixed in 70% ethanol for 1h at -20°C. After removal of the fixative solution by centrifugation, cells were stained with 2 µg/ml of phospho-Histone (γH2AX) Ser139 (16202A, Millipore, UK) to detect DSBs.
Cell cycle progression: Cells were treated with 20 µg/ml RNase A (12091021, Invitrogen) and then 10 µg/ml Propidium Iodide (P4170, Sigma Aldrich) was added to determine the cell cycle distribution. The samples were analysed on a Beckman-Coulter FC500 flow cytometer using a 488nm laser for excitation and emission data for PI collected using a 620nm bandpass filter (FL3) and a 525nm bandpass filter (FL1) for FITC-anti-phospho-Histone H2A.X. […]
Graphical representation and statistical analysis was performed in GraphPad Prism 7 (GraphPad, La Jolla, USA). […]

Assay [3] relates to FEN1 nuclear level in A2780cis cells. Briefly: Nuclear extract western blot for FEN1, A2780cis. It is filed as cell-based, human. To be noted: 5 µM cisplatin, 24 h. How it is done:
as §1, §2, §3, §4
Background: In western blotting, separated proteins are transferred to a membrane and probed.

Consider `Cc1csc2c1c(=O)n(O)c(=O)n2-c1ccccc1` [PTPD, 3-hydroxy-5-methyl-1-phenylthieno [2,3 d]pyrimidine-2,4(1H,3H)-dione], for which the “sensitivity to FEN1 inhibitor” value in assay [1] is given as “sensitive to FEN1i compared to control HeLa cells”. Besides, the γH2AX foci result in assay [2] was “increased γH2AX foci accumulation”.
On to `N.N.[Cl][Pt][Cl]` [cisplatin], for which the “nuclear level of FEN1 after cisplatin” value in assay [3] is “significantly increased”.
